Biological target: T1, JAK3: Recombinant human kinase domain (Homo sapiens, UniProt P52333)
T1 construct: JAK3: Recombinant human kinase domain from Millipore (Cat #14-629) or prepared; purchased Millipore 14-629
Test: Determination of IC50 of Janus Kinase (JAK) inhibition, radioactive end-point 33P-ATP assay, JAK3
Type: biochemical
Settings: ATP 1.5 uM, peptide 50 uM, 20 minutes, read-out: JAK3-INHIB-DR/v1~NO ADDITIVE~Enzyme_Conc = 100

T1 sequence (P52333 822-1111 limits assumed): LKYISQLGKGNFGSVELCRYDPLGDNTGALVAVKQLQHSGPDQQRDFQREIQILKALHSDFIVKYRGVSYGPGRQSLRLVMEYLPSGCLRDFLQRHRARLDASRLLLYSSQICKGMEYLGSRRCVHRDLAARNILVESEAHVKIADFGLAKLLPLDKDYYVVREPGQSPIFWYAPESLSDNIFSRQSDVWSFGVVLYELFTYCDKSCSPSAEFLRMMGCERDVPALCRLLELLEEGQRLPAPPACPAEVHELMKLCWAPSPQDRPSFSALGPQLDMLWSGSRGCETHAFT

Row | SMILES | IC50
1 | Cn1nc(-c2cnc3[nH]cc(C(=O)NC4(c5ccc(Br)cc5)CCC4)c3n2)c2ccc(F)cc21 [Example I-210, 2-(6-Fluoro-1-methyl-1H-indazol-3-yl)-5H-pyrrolo[2,3-b]pyrazine-7-carboxylic acid [1-(4-bromo-phenyl)-cyclobutyl]-amide] | 102 nM
2 | C[C@@H](NC(=O)c1c[nH]c2ncc(-c3nn(C)c4c3CC(C)(C)CC4)nc12)C(=O)N1CC(C#N)C1 [Example I-13] | 31.1 nM
3 | C[C@@H](C#N)CNC(=O)c1c[nH]c2ncc(-c3nn(C)c4cc(F)ccc34)nc12 [Example I-136, 2-(6-Fluoro-1-methyl-1H-indazol-3-yl)-5H-pyrrolo[2,3-b]pyrazine-7-carboxylic acid ((R)-2-cyano-2-methyl-ethyl)-amide] | 176 nM
4 | CC[C@H](COC)NC(=O)c1c[nH]c2ncc(-c3nn(C)c4cc(Cl)ccc34)nc12 [Example I-162, 2-(6-Chloro-1-methyl-1H-indazol-3-yl)-5H-pyrrolo[2,3-b]pyrazine-7-carboxylic acid ((R)-1-methoxymethyl-propyl)-amide] | 11.3 nM
5 | CCNC(=O)c1c[nH]c2ncc(-c3nn(C)c4cc(Cl)ccc34)nc12 [Example I-109, 2-(6-Chloro-1-methyl-1H-indazol-3-yl)-5H-pyrrolo[2,3-b]pyrazine-7-carboxylic acid ethylamide] | 44.3 nM
6 | C[C@H](CCC#N)NC(=O)c1c[nH]c2ncc(-c3nn(C)c4cc(Cl)ccc34)nc12 [Example I-205, 2-(6-Chloro-1-methyl-1H-indazol-3-yl)-5H-pyrrolo[2,3-b]pyrazine-7-carboxylic acid ((R)-3-cyano-1-methyl-propyl)-amide] | 18.4 nM
7 | C[C@@H](O)[C@@H](CO)NC(=O)c1c[nH]c2ncc(-c3nn(C)c4cc(F)ccc34)nc12 [Example I-176, 2-(6-Fluoro-1-methyl-1H-indazol-3-yl)-5H-pyrrolo[2,3-b]pyrazine-7-carboxylic acid ((1R,2R)-2-hydroxy-1-hydroxymethyl-propyl)-amide] | 165 nM
8 | C[C@@H](NC(=O)c1c[nH]c2ncc(-c3nn(CC(=O)O)c4cc(Cl)ccc34)nc12)C(=O)N1CC(C#N)C1 [Example I-226, (6-Chloro-3-{7-[(R)-2-(3-cyano-azetidin-1-yl)-1-methyl-2-oxo-ethylcarbamoyl]-5H-pyrrolo[2,3-b]pyrazin-2-yl}-indazol-1-yl)-acetic acid] | 8.1 nM
9 | CC(C)CC(C)NC(=O)c1c[nH]c2ncc(-c3nn(C)c4cc(F)ccc34)nc12 (centres unmarked) [Example I-187, 2-(6-Fluoro-1-methyl-1H-indazol-3-yl)-5H-pyrrolo[2,3-b]pyrazine-7-carboxylic acid (1,3-dimethyl-butyl)-amide] | 20.4 nM
10 | C[C@@H](NC(=O)c1c[nH]c2ncc(-c3nn(CCN(C)C)c4cc(Cl)ccc34)nc12)C(=O)N1CC(C#N)C1 [Example I-230, 2-[6-Chloro-1-(2-dimethylamino-ethyl)-1H-indazol-3-yl]-5H-pyrrolo[2,3-b]pyrazine-7-carboxylic acid [(R)-2-(3-cyano-azetidin-1-yl)-1-methyl-2-oxo-ethyl]-amide] | 12.3 nM
11 | C[C@@H](NC(=O)c1c[nH]c2ncc(-c3nn(C)c4cc(F)ccc34)nc12)c1ccc(C#N)cc1 [Example I-218, 2-(6-Fluoro-1-methyl-1H-indazol-3-yl)-5H-pyrrolo[2,3-b]pyrazine-7-carboxylic acid [(R)-1-(4-cyano-phenyl)-ethyl]-amide] | 14.7 nM
12 | Cn1nc(-c2cnc3[nH]cc(C(=O)N[C@H](c4ccc(Br)cc4)C(F)(F)F)c3n2)c2ccc(F)cc21 [Example I-211, 2-(6-Fluoro-1-methyl-1H-indazol-3-yl)-5H-pyrrolo[2,3-b]pyrazine-7-carboxylic acid [(R)-1-(4-bromo-phenyl)-2,2,2-trifluoro-ethyl)-amide] | > 1000 nM

Now those with a lower IC50, led by results:

Row | IC50 | SMILES
13 | 7.07 nM | CC(NC(=O)c1c[nH]c2ncc(-c3nn(C)c4cc(F)ccc34)nc12)c1ccon1 (centres unmarked) [Example I-53, 2-(6-Fluoro-1-methyl-1H-indazol-3-yl)-5H-pyrrolo[2,3-b]pyrazine-7-carboxylic acid (1-isoxazol-3-yl-ethyl)-amide]
14 | 6.67 nM | C[C@@H](NC(=O)c1c[nH]c2ncc(-c3nn(C)c4cc(F)ccc34)nc12)[C@@H]1CCCO1 [Example I-63, 2-(6-Fluoro-1-methyl-1H-indazol-3-yl)-5H-pyrrolo[2,3-b]pyrazine-7-carboxylic acid [(R)-(S)-1-(tetrahydro-furan-2-yl)-ethyl]-amide]
15 | 5.78 nM | CCOC[C@H](C)NC(=O)c1c[nH]c2ncc(-c3nn(C)c4cc(Cl)ccc34)nc12 [Example I-171, 2-(6-Chloro-1-methyl-1H-indazol-3-yl)-5H-pyrrolo[2,3-b]pyrazine-7-carboxylic acid ((S)-2-ethoxy-1-methyl-ethyl)-amide]
16 | 4.83 nM | CC(O)Cn1nc(-c2cnc3[nH]cc(C(=O)N[C@H](C)C(=O)N4CC(C#N)C4)c3n2)c2ccc(Cl)cc21 (stereo partly drawn) [Example I-95, 2-[6-Chloro-1-(2-hydroxy-propyl)-1H-indazol-3-yl]-5H-pyrrolo[2,3-b]pyrazine-7-carboxylic acid [(R)-2-(3-cyano-azetidin-1-yl)-1-methyl-2-oxo-ethyl]-amide]
17 | 4.81 nM | C[C@@H](NC(=O)c1c[nH]c2ncc(-c3nn(C)c4cc(Cl)ccc34)nc12)C1CC1 [Example I-16, 2-(6-Chloro-1-methyl-1H-indazol-3-yl)-5H-pyrrolo[2,3-b]pyrazine-7-carboxylic acid ((R)-1-cyclopropyl-ethyl)-amide]
18 | 4.17 nM | C[C@@H](NC(=O)c1c[nH]c2ncc(-c3nn(CC(=O)N(C)C)c4cc(Cl)ccc34)nc12)C(=O)N1CC(C#N)C1 [Example I-227, 2-(6-Chloro-1-dimethylcarbamoylmethyl-1H-indazol-3-yl)-5H-pyrrolo[2,3-b]pyrazine-7-carboxylic acid [(R)-2-(3-cyano-azetidin-1-yl)-1-methyl-2-oxo-ethyl]-amide]
19 | 3.77 nM | C[C@H](NC(=O)c1c[nH]c2ncc(-c3nn(C)c4cc(Cl)cc(F)c34)nc12)C1CC1 [Example I-141, 2-(6-Chloro-4-fluoro-1-methyl-1H-indazol-3-yl)-5H-pyrrolo[2,3-b]pyrazine-7-carboxylic acid ((S)-1-cyclopropyl-ethyl)-amide]
20 | 3.34 nM | C[C@@H](NC(=O)c1c[nH]c2ncc(-c3nn(CCN(C)C)c4cc(Cl)ccc34)nc12)C(=O)N1CC(C#N)C1 [Example I-229, 2-[6-Chloro-1-(2-dimethylamino-ethyl)-1H-indazol-3-yl]-5H-pyrrolo[2,3-b]pyrazine-7-carboxylic acid [(R)-2-(3-cyano-azetidin-1-yl)-1-methyl-2-oxo-ethyl]-amide]
21 | 2.63 nM | C[C@@H](NC(=O)c1c[nH]c2ncc(-c3nn(C)c4cc(F)ccc34)nc12)c1ncco1 [Example I-50, 2-(6-Fluoro-1-methyl-1H-indazol-3-yl)-5H-pyrrolo[2,3-b]pyrazine-7-carboxylic acid ((R)-1-oxazol-2-yl-ethyl)-amide]
22 | 2.34 nM | COCCn1nc(-c2cnc3[nH]cc(C(=O)N[C@H](C)C(=O)N4CC(C#N)C4)c3n2)c2ccc(Cl)cc21 [Example I-24, 2-[6-Chloro-1-(2-methoxy-ethyl)-1H-indazol-3-yl]-5H-pyrrolo[2,3-b]pyrazine-7-carboxylic acid [(R)-2-(3-cyano-azetidin-1-yl)-1-methyl-2-oxo-ethyl]-amide]
23 | 2.31 nM | C[C@@H](NC(=O)c1c[nH]c2ncc(-c3ncn4cc(F)ccc34)nc12)c1ncco1 [Example I-58, 2-(6-Fluoro-imidazo[1,5-a]pyridin-1-yl)-5H-pyrrolo[2,3-b]pyrazine-7-carboxylic acid ((R)-1-oxazol-2-yl-ethyl)-amide]
24 | 2.08 nM | C[C@@H](NC(=O)c1c[nH]c2ncc(-c3nn(CCN4CCOCC4)c4cc(Cl)ccc34)nc12)C(=O)N1CC(C#N)C1 [Example I-231, 2-[6-Chloro-1-(2-morpholin-4-yl-ethyl)-1H-indazol-3-yl]-5H-pyrrolo[2,3-b]pyrazine-7-carboxylic acid [(R)-2-(3-cyano-azetidin-1-yl)-1-methyl-2-oxo-ethyl]-amide]
25 | 1.83 nM | COC[C@H](C)NC(=O)c1c[nH]c2ncc(-c3nn(CCN(C)C)c4cc(F)ccc34)nc12 [Example I-239, 2-[1-(2-Dimethylamino-ethyl)-6-fluoro-1H-indazol-3-yl]-5H-pyrrolo[2,3-b]pyrazine-7-carboxylic acid ((S)-2-methoxy-1-methyl-ethyl)-amide]
26 | 1.57 nM | C[C@@H](NC(=O)c1c[nH]c2ncc(-c3nn(C)c4cc(F)cc(F)c34)nc12)C(=O)N1CC(C#N)C1 [Example I-88, 2-(4,6-Difluoro-1-methyl-1H-indazol-3-yl)-5H-pyrrolo[2,3-b]pyrazine-7-carboxylic acid [(R)-2-(3-cyano-azetidin-1-yl)-1-methyl-2-oxo-ethyl]-amide]
27 | 0.815 nM | COC[C@H](C)NC(=O)c1c[nH]c2ncc(-c3nn(CCN4CCOCC4)c4cc(F)ccc34)nc12 [Example I-238, 2-[6-Fluoro-1-(2-morpholin-4-yl-ethyl)-1H-indazol-3-yl]-5H-pyrrolo[2,3-b]pyrazine-7-carboxylic acid ((S)-2-methoxy-1-methyl-ethyl)-amide]
28 | 0.805 nM | COC[C@H](C)NC(=O)c1c[nH]c2ncc(-c3nn(CCN4CCOCC4)c4cc(Cl)ccc34)nc12 [Example I-236, 2-[6-Chloro-1-(2-morpholin-4-yl-ethyl)-1H-indazol-3-yl]-5H-pyrrolo[2,3-b]pyrazine-7-carboxylic acid ((S)-2-methoxy-1-methyl-ethyl)-amide]
29 | 0.575 nM | Cn1nc(-c2cnc3[nH]cc(C(=O)N[C@@H](C(=O)N4CCC(C#N)CC4)C4CC4)c3n2)c2ccc(Cl)cc21 [Example I-2, 2-(6-Chloro-1-methyl-1H-indazol-3-yl)-5H-pyrrolo[2,3-b]pyrazine-7-carboxylic acid [(R)-2-(4-cyano-piperidin-1-yl)-1-cyclopropyl-2-oxo-ethyl]-amide]
